Consider one compound from EP0923529B1 (Bayer Corporation, priority 1996, dated 1997).

Common to all, as to type: biochemical
One experiment concerns the target T1, MMP-2 (Homo sapiens, UniProt P08253).
T1 sequence (P08253 110-660): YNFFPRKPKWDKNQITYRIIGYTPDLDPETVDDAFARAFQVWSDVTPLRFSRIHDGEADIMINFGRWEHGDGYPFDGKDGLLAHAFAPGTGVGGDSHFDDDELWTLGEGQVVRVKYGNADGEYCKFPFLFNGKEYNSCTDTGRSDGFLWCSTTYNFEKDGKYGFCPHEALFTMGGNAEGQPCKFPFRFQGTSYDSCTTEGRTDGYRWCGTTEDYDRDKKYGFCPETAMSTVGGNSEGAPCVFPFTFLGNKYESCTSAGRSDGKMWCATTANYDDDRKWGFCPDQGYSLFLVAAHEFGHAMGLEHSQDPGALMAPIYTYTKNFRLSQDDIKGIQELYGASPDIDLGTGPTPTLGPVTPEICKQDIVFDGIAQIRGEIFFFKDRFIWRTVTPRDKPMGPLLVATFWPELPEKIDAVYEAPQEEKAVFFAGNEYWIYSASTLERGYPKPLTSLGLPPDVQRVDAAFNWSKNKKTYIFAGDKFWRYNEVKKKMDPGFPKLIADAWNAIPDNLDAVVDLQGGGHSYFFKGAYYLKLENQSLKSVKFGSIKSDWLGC
Description: P218 quenched fluorescence assay (MMP Microfluorometric Profiling Assay), MMP-2.

The next experiment deals with T2, MMP-3 (Homo sapiens, UniProt P08254).
T2 construct: made in house; host or cells: CHO cells
T2 sequence (P08254 100-477): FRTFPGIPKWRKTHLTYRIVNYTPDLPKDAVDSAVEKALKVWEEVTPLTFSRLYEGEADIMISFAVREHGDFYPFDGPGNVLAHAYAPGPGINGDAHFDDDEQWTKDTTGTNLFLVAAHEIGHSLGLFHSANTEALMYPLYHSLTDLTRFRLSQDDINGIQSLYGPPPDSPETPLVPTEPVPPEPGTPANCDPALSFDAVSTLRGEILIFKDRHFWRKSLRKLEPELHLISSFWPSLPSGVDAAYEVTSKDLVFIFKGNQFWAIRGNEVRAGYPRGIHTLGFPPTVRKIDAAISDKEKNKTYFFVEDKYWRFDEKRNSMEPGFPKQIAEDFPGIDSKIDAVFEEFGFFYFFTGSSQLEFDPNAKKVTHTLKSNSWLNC
Description: P218 quenched fluorescence assay (MMP Microfluorometric Profiling Assay), MMP-3. The settings on record: P218 substrate 6 µM, 25 min at 37 °C, pH 6.5. From the text:
(§1) The P218 quenched fluorescence assay (Microfluorometric Profiling Assay) is a modification of that originally described by C. G. Knight et al., FEBS Letters, 296, 263-266 (1992) for a related substrate and a variety of matrix metalloproteinases (MMPs) in cuvettes. The assay was run with each exemplary compound of the invention and the three MMPs, MMP-3, MMP-9 and MMP-2, analyzed in parallel, adapted as follows for a 96-well microtitre plate and a Hamilton AT® workstation.
(§2) P218 is a synthetic substrate containing a 4-acetyl-7-methoxycoumarin (MCA) group in the N-terminal position and a 3-(2,4-dinitrophenyl)-(L)-2,3-diaminopropionyl (DPA) group internally. This is a modification of a peptide reported by Knight (1992) that was used as a substrate for matrix metalloproteinases. Once the P218 peptide is cleaved (putative clip site at the Ala-Leu bond), the fluorescence of the MCA group can be detected on a fluorometer with excitation at 328 nm and emission at 393 nm. P218 is currently being produced by BACHEM Bioscience, Inc. exclusively for the Bayer Corp. P218 has the structure: H-MCA-Pro-Lys-Pro-Leu-Ala-Leu-DPA-Ala-Arg-NH2 (MW 1332.2)
Recombinant Human CHO Pro-MMP-3: Human CHO pro-stromelysin-257 (pro-MMP-3) was expressed and purified as described by T. J. Housley et al., J. Biol. Chem., 268, 4481-4487 (1993).
Activation of Pro-MMP-3: Pro-MMP-3 at 1.72 µM (100 µg/mL) in an MMP-3 activation buffer consisting of 5 mM Tris at pH 7.5, 5 mM CaCl2, 25 mM NaCl, and 0.005% Brij-35 was activated by incubation with TPCK (N-tosyl-(L)-phenylalanine chloromethyl ketone) trypsin (1:100 w/w to pro-MMP-3) at 25 °C for 30 min. The reaction was stopped by addition of soybean trypsin inhibitor (SBTI; 5:1 w/w to trypsin concentration).
(§3) Hamilton Microlab AT Plus®: The MMP-profiling assay was performed robotically using a Hamilton MicroLab AT Plus®. The Hamilton was programmed to: (1) serially dilute up to 11 potential inhibitors automatically using a 2.5 mM stock solution of the inhibitor in 100% DMSO; (2) distribute substrate followed by inhibitor into a 96-well Cytofluor plate; and (3) add a single enzyme to the plate with mixing to start the reaction. Subsequent plates for each additional enzyme were prepared automatically by beginning the program at the substrate addition point, remixing the diluted inhibitors, and beginning the reaction by addition of enzyme. In this way, all MMP assays were done using the same inhibitor dilutions.
(§4) Millipore Cytofluor II: Following incubation, the plate was read on a Cytofluor II fluorometric plate reader with excitation at 340 nm and emission at 395 nm with the gain set at 80.
(§5) Microfluorometric Reaction Buffer (MRB): Dilutions of test compounds, enzymes and P218 substrate for the microfluorometric assay were made in microfluorometric reaction buffer (MRB) consisting of 50 mM 2-(N-morpholino)ethanesulfonic acid (MES) at pH 6.5 with 10 mM CaCl2, 150 mM NaCl, 0.005 % Brij-35 and 1% DMSO.
(§6) MMP Microfluorometric Profiling Assay. The assay was done with a final P218 concentration of 6 µM, approximately 0.5 to 0.8 nM of activated MMP (one MMP per 96-well plate), and with variable inhibitor concentrations. The Hamilton MicroLab AT Plus® was programmed to serially dilute up to 11 compounds from a 2.5 mM stock (100% DMSO) to 10-times the final compound concentrations in the assay. Initially, the instrument delivered various amounts of microfluorometric reaction buffer (MRB) to a 96-tube rack of 1 mL Marsh dilution tubes. The instrument picked up 20 µL inhibitor (2.5 mM) and mixed it with buffer in row A of the Marsh rack, resulting in a 50 µM inhibitor concentration. The inhibitors were then serially diluted to 10, 5, 1, 0.2, 0.05 and 0.01 µM. […] The instrument re-mixed and loaded 14.5 µL of diluted compound from rows A to G in the Marsh rack to the corresponding rows in the microtiter plate.

A further experiment concerns the target T3, MMP-9 (Homo sapiens, UniProt P14780).
T3 construct: made in house
Nature of the experiment: P218 quenched fluorescence assay (MMP Microfluorometric Profiling Assay), MMP-9. The settings on record: P218 substrate 6 µM, 25 min at 37 °C, pH 6.5.
Source text: as §1, §2
Human Recombinant Pro-MMP-9: Human recombinant pro-gelatinase B (pro-MMP-9) derived from U937 cDNA as described by S. M. Wilhelm et al., J. Biol. Chem., 264, 17213-17221 (1989) was expressed as the full-length form using a baculovirus protein expression system. The pro-enzyme was purified using methods previously described by M.S. Hibbs, et al., J. Biol. Chem., 260, 2493-500 (1984).
Activation of Pro-MMP-9 : Pro-MMP-9 (20 µg/mL) in an MMP-9 activation buffer consisting of 50 mM Tris at pH 7.4, 150 mM NaCl, 10 mM CaCl2 and 0.005% Brij-35 was activated by incubation with a 0.5 mM p-aminophenylmercuric acetate (APMA) for 3.5 h at 37 °C. The enzyme was dialyzed against the same buffer to remove APMA.
as §3, §4, §5
as §6, with “plate. […]” for “plate.”

T3 sequence (P14780 107-707 limits assumed): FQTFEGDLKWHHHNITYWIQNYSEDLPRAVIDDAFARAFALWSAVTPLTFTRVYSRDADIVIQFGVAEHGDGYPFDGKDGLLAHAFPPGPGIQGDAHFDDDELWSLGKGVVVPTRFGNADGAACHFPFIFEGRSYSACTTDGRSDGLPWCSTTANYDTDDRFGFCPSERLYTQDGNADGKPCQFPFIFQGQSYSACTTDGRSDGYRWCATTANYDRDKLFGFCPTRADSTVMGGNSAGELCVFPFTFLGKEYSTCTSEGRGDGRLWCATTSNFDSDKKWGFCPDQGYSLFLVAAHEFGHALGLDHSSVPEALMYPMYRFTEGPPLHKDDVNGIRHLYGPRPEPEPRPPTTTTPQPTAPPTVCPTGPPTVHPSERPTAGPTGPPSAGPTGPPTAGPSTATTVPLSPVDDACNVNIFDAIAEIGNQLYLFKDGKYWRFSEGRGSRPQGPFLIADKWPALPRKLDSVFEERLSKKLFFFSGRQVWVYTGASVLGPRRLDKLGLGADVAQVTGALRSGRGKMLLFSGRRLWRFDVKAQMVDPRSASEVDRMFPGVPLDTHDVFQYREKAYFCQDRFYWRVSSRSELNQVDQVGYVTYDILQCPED

`O=C(CC(CCN1C(=O)c2ccccc2C1=O)C(=O)O)c1ccc(OCCOCc2ccccc2)cc1` (stereo not drawn) [Example 13, 4-(4-(2-benzyloxyethoxy)phenyl)-4-oxo-2-(2-phthalimidoethyl)butyric acid]: the IC50 at MMP-2 stood at 53 nM; against MMP-3, 82 nM; against MMP-9, 355 nM.
